From ChEMBL document CHEMBL1153235, “Synthesis and antiproliferating activity of iron chelators of hydroxyamino-1,3,5-triazine family” (Bioorg Med Chem Lett, 2010)

What was measured:
[1] = Cytotoxicity against human foreskin fibroblasts after 96 hrs by MTT assay; assay type: cell-based; conditions: Fibroblast
MIA PaCa-2 (human) = assay: Cytotoxicity against human MIAPaCa2 cells after 96 hrs by MTT assay; conditions: MIA PaCa-2, 96 h
MDA-MB-231 (human) = assay: Cytotoxicity against human MDA-MB-231 cells after 96 hrs by MTT assay; conditions: MDA-MB-231, 96 h

Compound | IC50 [1] | IC50 (MIA PaCa-2 (human)) | IC50 (MDA-MB-231 (human))
CCOC(=O)CN(C)c1nc(N(C)O)nc(N(C)O)n1 | 200 µM | 4 µM | 20 µM
CCCCNc1nc(NN)nc(N(C)O)n1 | 300 µM | 50 µM | 75 µM
CN(O)c1nc(N2CCOCC2)nc(N2CCC=N2)n1 | 250 µM | 50 µM | 75 µM
ONc1nc(NO)nc(N2CCOCC2)n1 | 350 µM | 40 µM | 250 µM
CCCCNc1nc(N(C)O)nc(N(C)O)n1 | 16.5 µM | 0.8 µM | 4 µM
CN(O)c1nc(NN)nc(N2CCOCC2)n1 | 400 µM | 150 µM | 150 µM
O=C(O)c1ccc(-n2nc(-c3ccccc3O)nc2-c2ccccc2O)cc1 [DEFERASIROX] | 100 µM | 4 µM | 10 µM
CON(C)c1nc(N(C)O)nc(N2CCOCC2)n1 | 250 µM | 40 µM | 150 µM
CN(O)c1nc(N(C)O)nc(N2CCOCC2)n1 | 200 µM | 1 µM | 9 µM
